In ChEMBL document CHEMBL1158188, “Natural polyphenols (vegetable tannins) as drugs: possible modes of action” (J Nat Prod, 1996):

Experiments:
[1] = Binding affinity to bradykinin
[2] = Binding affinity to desarginyl(9)bradykinin
[3] = Binding affinity to bradykinin peptide Arg-Pro-Pro-Gly-Phe
[4] = Binding affinity to desarginyl(1)bradykinin
[5] = Antioxidant activity assessed by singlet oxygen scavenging assay; type: functional
[6] = Antioxidant activity assessed by superoxide anion scavenging assay; type: functional
[7] = Antioxidant activity assessed by hydroxyl radical scavenging assay; type: functional
[8] = Octanol-water partition coefficient of the compound; type: physicochemical; details: read-out: log KOW

| SMILES | Ka [1] [M⁻¹] | IC50 [5] [µM] | IC50 [6] [µM] | IC50 [7] [µM] | also measured |
| --- | --- | --- | --- | --- | --- |
| O=C(OC[C@H]1O[C@@H](OC(=O)c2cc(O)c(O)c(O)c2)[C@H](O)[C@@H](OC(=O)c2cc(O)c(O)c(O)c2)[C@@H]1O)c1cc(O)c(O)c(O)c1 | 4.4 |  |  |  |  |
| O=C(OC[C@H]1O[C@@H](OC(=O)c2cc(O)c(O)c(O)c2)[C@H](OC(=O)c2cc(O)c(O)c(O)c2)[C@@H](O)[C@@H]1OC(=O)c1cc(O)c(O)c(O)c1)c1cc(O)c(O)c(O)c1 | 20.5 |  |  |  |  |
| O=C(OC[C@H]1O[C@@H](OC(=O)c2cc(O)c(O)c(O)c2)[C@H](OC(=O)c2cc(O)c(O)c(O)c2)[C@@H](OC(=O)c2cc(O)c(O)c(O)c2)[C@@H]1OC(=O)c1cc(O)c(O)c(O)c1)c1cc(O)c(O)c(O)c1 | 33.7 |  |  |  | Ka [2]: 20.4 M⁻¹; Ka [3]: 13 M⁻¹; Ka [4]: 20 M⁻¹ |
| Oc1cc(O)c2c(c1)O[C@H](c1ccc(O)c(O)c1)[C@H](O)[C@H]2c1c(O)cc(O)c2c1O[C@H](c1ccc(O)c(O)c1)[C@H](O)C2 | 8.2 |  |  |  |  |
| O=C1O[C@H]([C@@H](O)CO)C(O)=C1O [ASCORBIC ACID] |  | 120 | 23.3 | 18.8 |  |
| O=C1OC[C@H]2OC(=O)c3cc(O)c(O)c(O)c3-c3c(O)c(O)c(O)c4c3C(=O)O[C@H]([C@H]3OC(=O)c5c-4c(O)c(O)c(O)c5[C@H]3O)[C@@H]2OC(=O)c2cc(O)c(O)c(O)c2-c2c1cc(O)c(O)c2O [CASTALAGIN] |  |  |  |  | logP [8]: 0.1 |
| O=C(O)c1cc(O)c(O)c(O)c1 [GALLIC ACID] |  | 69.8 | 1.01 | 78 |  |
| O=C(OC[C@@H]1OC(O)[C@](O)(COC(=O)c2cc(O)c(O)c(O)c2)[C@H]1O)c1cc(O)c(O)c(O)c1 (stereo partly specified) [HAMAMELITANIN] |  | 45.5 | 1.31 | 5.46 |  |
| CCCOC(=O)c1cc(O)c(O)c(O)c1 [PROPYL GALLATE] |  | 66.7 | 1.41 | 86.5 |  |
| O=C1OCC2OC(=O)c3cc(O)c(O)c(O)c3-c3c(O)c(O)c(O)c4c3C(=O)OC(C2OC(=O)c2cc(O)c(O)c(O)c2-c2c1cc(O)c(O)c2O)C1OC(=O)c2c-4c(O)c(O)c(O)c2C1O (stereo unspecified) [VESCALAGIN] |  |  |  |  | logP [8]: 0.1 |
